We go through 29 compounds from US6528535B2, “Bicyclic inhibitors of protein farnesyl transferase” (Warner-Lambert Company, priority 1997, dated 2003).

Series [1] concerns the target T1, SF9 affinity purified rat FPT (Rattus norvegicus, UniProt Q02293+Q04631).
T1 construct: made in house; host or cells: Sf9 insect cells
Kind of series: PFT (farnesyl protein transferase) inhibitory activity, radiolabeled farnesyl pyrophosphate / biotinyl peptide bead assay. Type of series: biochemical. To be noted: read-out: FTase, IC50. As to the method: The protein:farnesyl transferase (PFT) or farnesyl protein transferase (FPT) inhibitory activity of compounds of the present invention were assayed in HEPES buffer (pH 7.4) containing 5 mM potassium phosphate and 20 μM ZnCl2. The solution also contained 5 mM DTT (dithiothreitol), 5 mM MgCl2, and 0.1% PEG 8000. Assays were performed in 96 well plates (Wallec) and employed solutions composed of varying concentrations of a compound of the present invention in 10% DMSO (dimethylsulfoxide). Upon addition of both substrates, radiolabeled farnesyl pyrophosphate ([1^3H], specific activity 15-30 Ci/mmol, final concentration 134 nM) and (biotinyl)-Ahe-Thr-Lys-Cys-Val-Ile-Met ([3aS[3a alpha, 4 beta, 6a alpha]-hexahydro-2-oxo-1H-thieno[3,4-d]imidazole-5-pentanoic acid]-[7-aminoheptanoic acid]-Thr-Lys-Cys-Val-Ile-Met) (Ahe is 7-aminoheptanoic acid, Thr is threonine, Lys is lysine, Cys is cysteine, Val is valine, Ile is isoleucine, and Met is methionine) (final concentration 0.2 μM), the enzyme reaction was started by addition of SF9 affinity purified rat FPT. After incubation at 30° C. for 30 minutes, the reaction was terminated by diluting the reaction 2.5-fold with a stop buffer containing 1.5 M magnesium acetate, 0.2 M H3PO4, 0.5% BSA (bovine serum albumin), and strepavidin beads (Amersham) at a concentration of 1.3 mg/mL. After allowing the plate to settle for 30 minutes at room temperature, radioactivity was quantitated on a microbeta counter (Model 1450, Wallec). The assay was also carried out without 5 mM potassium phosphate.

Setting [2] is: average of two tests unless n is given in parentheses.

Counter-ions that a name gives are not always drawn. Like-named read-outs stand apart in the source and are kept apart here. A value given as a limit tells only on which side of the number the result lay.

In general, melting point refers to the temperature, or range, at which the solid turns liquid. `CC(=C1CCc2cc(OCCc3c[nH]cn3)ccc2C1=O)c1ccccc1` (as salt: HCl) [Example 40, 6-[2-(1H-Imidazole-4-yl)-ethoxy]-2-(1-phenyl-ethylidene)-3,4-dihydro-2H-naphthalen-1-one] came in with a melting point of 170 to 172 °C.

As a reminder, the IC50 is the concentration needed to halve the response being measured. For `CSc1ccc(C=C2CCc3cc(OCCn4ccnc4)ccc3C2=O)cc1` [Example 4], the melting point was 161 to 161.5 °C. In addition, the IC50 in series [1] (setting [2]) is 78 nM.

In the case of `O=C1C(=Cc2ccc(Br)cc2)CCc2cc(OCCn3ccnc3)ccc21` [Example 5, 2-(4-Bromo-benzylidene)-6-(2-imidazole-1-yl-ethoxy)-3,4-dihydro-2H-naphthalen-1-one], the melting point is 152 to 153 °C. In addition, the half-maximal inhibitory concentration (IC50) in series [1] (setting [2]) amounted to 1370 nM.

Compound `O=C1C(=Cc2ccncc2)CCc2cc(OCCn3ccnc3)ccc21` [Example 6, 6-(2-Imidazole-1-yl-ethoxy)-2-pyridin-4-ylmethylene-3,4-dihydro-2H-naphthalen-1-one] had a melting point of 128.5 to 129 °C. For the same compound, the IC50 in series [1] (setting [2]) is 1260 nM.

On to `O=C1C(=Cc2ccc([N+](=O)[O-])cc2)CCc2cc(OCCn3ccnc3)ccc21` [Example 7, 6-(2-Imidazole-1-yl-ethoxy)-2-(4-nitro-benzylidene)-3,4-dihydro-2H-naphthalen-1-one], for which the melting point was 184 to 185 °C. Also, the half-inhibitory concentration (IC50) in series [1] (setting [2]) was 1700 nM.

Take `CSc1ccc(CC2CCc3cc(OCCn4ccnc4)ccc3C2=O)cc1` (stereo not shown) [Example 10, 6-(2-Imidazole-1yl-ethoxy)-2-(4-methylsulfanyl-benzyl)-3,4-dihydro-2H-naphthalen-1-one]: the melting point lay within 114 to 117 °C. Moreover, the IC50 in series [1] (setting [2]) is 370 nM.

For the compound `O=C1C(=Cc2ccsc2)CCc2cc(OCCn3ccnc3)ccc21` [Example 11, 6-(2-Imidazole-1yl-ethoxy)-2-thiophen-3-ylmethylene-3,4-dihydro-2H-naphthalen-1-one], the melting point was in the range of 61 to 62 °C. For the same compound, in series [1] (setting [2]), the IC50 worked out at 120 nM.

`O=C(O)c1ccc(C=C2CCc3cc(OCCn4ccnc4)ccc3C2=O)cc1` [Example 12, 4-[6-(2-Imidazole-1-yl-ethoxy)-1-oxo-3,4-dihydro-1H-naphthalen-2-ylidenemethyl]-benzoic acid] yielded a melting point of 267 to 267.5 °C. Moreover, the 50% inhibitory concentration (IC50) in series [1] (setting [2]) is 600 nM.

The compound `O=C1c2ccc(OCCn3ccnc3)cc2CCC1Cc1ccc(Br)cc1` (stereo not shown) [Example 13, 2-(4-Bromo-benzyl)-6-(2-imidazole-1-yl-ethoxy)-3,4-dihydro-2H-naphthalen-1-one] yielded a melting point of 129 to 130.5 °C. Besides, the concentration for half-maximal inhibition (IC50) in series [1] (setting [2]) came to 290 nM.

As for `O=C1C(=Cc2cccs2)CCc2cc(OCCn3ccnc3)ccc21` [Example 14, 6-(2-Imidazole-1-yl-ethoxy)-2-thiophen-2-ylmethylene-3,4-dihydro-2H-naphthalen-1-one], the melting point was in the range of 137 to 138 °C. Also, the IC50 in series [1] (setting [2]) was determined as 89 nM.

Compound `O=C1C(=Cc2cccc3ccccc23)CCc2cc(OCCn3ccnc3)ccc21` [Example 15, 6-(2-Imidazole-1-yl-ethoxy)-2-naphthalen-1-ylmethylene-3,4-dihydro-2H-naphthalen-1-one] came in with a melting point of 147 to 148 °C. The IC50 in series [1] (setting [2]) turned out to be 1300 nM.

For `O=C1C(=Cc2ccco2)CCc2cc(OCCn3ccnc3)ccc21` [Example 16, 2-Furan-2-ylmethylene-6-(2-imidazole-1-yl-ethoxy)-3,4-dihydro-2H-naphthalen-1-one], the melting point lay in the range of 109 to 110 °C. In addition, the IC50 in series [1] (setting [2]) came to 110 nM.

The compound `O=C1C(=Cc2cc(Br)cs2)CCc2cc(OCCn3ccnc3)ccc21` [Example 17, 2-(4-Bromo-thiophen-2-ylmethylene)-6-(2-imidazole-1-yl-ethoxy)-3,4-dihydro-2H-naphthalen-1-one] returned a melting point of 164 to 166 °C. For the same compound, in series [1] (setting [2]), the IC50 turned out to be 100 nM.

For `O=C1C(=Cc2ccc(Cl)s2)CCc2cc(OCCn3ccnc3)ccc21` [Example 18, 2-(5-Chloro-thiophen-2-ylmethylene)-6-(2-imidazole-1-yl-ethoxy)-3,4-dihydro-2H-naphthalen-1-one], the melting point lay in the range of 143 to 144 °C. In addition, in series [1] (setting [2]), the 50% inhibitory concentration (IC50) came out at 320 nM.

On to `CSc1ccc(C=C2CCc3cc(OCCn4ccnc4)ccc3C2=O)s1` [Example 19, 6-(2-Imidazole-1-yl-ethoxy)-2-(5-methylsulfanyl-thiophen-2-ylmethylene)-3,4-dihydro-2H-naphthalen-1-one], for which the melting point lay in the range of 102 to 104 °C. Further, the IC50 in series [1] (setting [2]) was 700 nM.

`O=C1C(=Cc2sccc2Oc2ccccc2)CCc2cc(OCCn3ccnc3)ccc21` [Example 20, 6-(2-Imidazole-1-yl-ethoxy)-2-(3-phenoxy-thiophen-2-ylmethylene)-3,4-dihydro-2H-naphthalen-1-one] returned a melting point of 135 to 137 °C. The concentration for half-maximal inhibition (IC50) in series [1] (setting [2]) was found to be 3100 nM.

Compound `O=C1C(=Cc2ccc(-c3cccs3)s2)CCc2cc(OCCn3ccnc3)ccc21` [Example 21, 2-[2,2′]Bithiophenyl-5-ylmethylene-6-(2-imidazole-1-yl-ethoxy)-3,4-dihydro-2H-naphthalen-1-one] yielded a melting point of 180 to 181 °C. In addition, the concentration for half-maximal inhibition (IC50) in series [1] (setting [2]) came out at 2800 nM.

For the compound `O=C1C(=Cc2ccc([N+](=O)[O-])s2)CCc2cc(OCCn3ccnc3)ccc21` [Example 22, 6-(2-Imidazole-1-yl-ethoxy)-2-(5-nitro-thiophen-2-ylmethylene)-3,4-dihydro-2H-naphthalen-1-one], the melting point is more than 240 °C. For the same compound, in series [1] (setting [2]), the 50% inhibitory concentration (IC50) turned out to be 370 nM.

In turn, `O=C1C(=Cc2ccoc2)CCc2cc(OCCn3ccnc3)ccc21` [Example 23, 2-Furan-3-ylmethylene-6-(2-imidazole-1-yl-ethoxy)-3,4-dihydro-2H-naphthalen-1-one] had a melting point of 116 to 117 °C. Besides, the IC50 in series [1] (setting [2]) was determined as 1600 nM.

In turn, `COc1ccc(C=C2CCc3cc(OCCn4ccnc4)ccc3C2=O)cc1` [Example 24, 6-(2-Imidazole-1-yl-ethoxy)-2-(4-methoxy-benzylidene)-3,4-dihydro-2H-naphthalen-1-one] had a melting point of 132 to 133 °C. Besides, the IC50 in series [1] (setting [2]) was 880 nM.

As for `O=C1C(=Cc2ccsc2)CCc2cc(OCCc3c[nH]cn3)ccc21` [Example 28, 6-[2-(1H-Imidazole-4-yl)-ethoxy]-2-thiophen-3-ylmethylene-3,4-dihydro-2H-naphthalen-1-one], the melting point lay within 94 to 96 °C. Moreover, the concentration for half-maximal inhibition (IC50) in series [1] (setting [2]) came to 170 nM.

Compound `O=C1C(=Cc2cccs2)CCc2cc(OCCc3c[nH]cn3)ccc21` [Example 29, 6-[2-(1H-Imidazole-4-yl)-ethoxy]-2-thiophen-2-ylmethylene-3,4-dihydro-2H-naphthalen-1-one] came in with a melting point of 60 to 63 °C. In addition, in series [1] (setting [2]), the IC50 was 88 nM.

`O=C1C(=Cc2ccccc2)CCc2cc(OCCc3c[nH]cn3)ccc21` [Example 30, 2-Benzylidene-6-[2-(1H-imidazole-4-yl)-ethoxy]-3,4-dihydro-2H-naphthalen-1-one] gave a melting point of 53 to 56 °C. Also, the IC50 in series [1] (setting [2]) came out at 890 nM.

`CSc1ccc(C=C2CCc3cc(OCCc4c[nH]cn4)ccc3C2=O)cc1` [Example 31, 6-[2-(1H-Imidazole-4-yl)-ethoxy]-2-(4-methylsulfanyl-benzylidene)-3,4-dihydro-2H-naphthalen-1-one] showed a melting point of 65 to 70 °C. Besides, the 50% inhibitory concentration (IC50) in series [1] (setting [2]) is 590 nM.

In the case of `O=C1/C(=C/c2cccs2)CNc2cc(OCCn3ccnc3)ccc21` [Example 49, 7-[2-(1H-1-Imidazolyl)ethoxy]-3-[(E)-1-(2-thienyl)methylidene]-1,2,3,4-tetrahydro-4-quinolinone], the melting point was in the range of 211 to 213 °C.

`Cc1cccc(/C=C2\CCc3cc(OCCn4ccnc4)ccc3C2=O)c1` [Example 74, 6-[2-(1H-1-Imidazolyl)ethoxy]-2-[(E)-1-(3-methylphenyl)methylidene]-1,2,3,4-tetrahydro-1-naphthalenone]: in series [1] (Examples 56-74, parallel synthesis array: single test, values adjusted to account for the purity of the sample), the 50% inhibitory concentration (IC50) is 1890 nM.

On to `O=C1CCCc2cc(OC(Cn3ccnc3)c3ccccc3)ccc21` (stereo not shown) [Example 80, 6-[2-(1H-1-Imidazolyl)-1-phenylethoxy]-1,2,3,4-tetrahydro-1-naphthalenone], for which the concentration for half-maximal inhibition (IC50) in series [1] (setting [2]) turned out to be 73 nM.

For the compound `O=C1C(=Cc2cccs2)CCc2cc(OC(Cn3ccnc3)c3ccccc3)ccc21` (stereo not shown) [Example 81, 6-(2-Imidazol-1-yl-1-phenyl-ethoxy)-2-thiophen-2-ylmethylene-3,4-dihydro-2H-naphthalen-1-one], the IC50 in series [1] (setting [2]) worked out at 37 nM.

Consider `O=C(CON=C1CCCc2cc(OCCn3ccnc3)ccc21)NCC1(c2ccccc2)CCC1` [Example 82, 2-[6-(2-Imidazol-1-yl-ethoxy)-3,4-dihydro-2H-naphthalen-1-ylideneaminooxy]-N-(1-phenyl-cyclobutylmethyl)-acetamide], for which the half-inhibitory concentration (IC50) in series [1] (setting [2]) stood at 420 nM.
